Assay results: ChEMBL document CHEMBL1649524, “Resistance selection studies comparing the activity of razupenem (PTZ601) to vancomycin and linezolid against eight methicillin-resistant and two methicillin-susceptible Staphylococcus aureus strains” (2009)
In brackets after ≈: the same amount, converted by molar mass.

What was measured:
Staphylococcus aureus [1] = test: microbe, parasite or virus in culture; conditions: 547
Description: Antimicrobial activity against methicillin-resistant Staphylococcus aureus 547 after 50 passages by macrodilution method

Staphylococcus aureus [2] = test: Antimicrobial activity against methicillin-susceptible Staphylococcus aureus 540 measured on day 35 by macrodilution method; format: functional
Staphylococcus aureus [3] = test: Antimicrobial activity against vancomycin-intermediate Staphylococcus aureus 555 measured on day 30 by macrodilution method; format: functional
Staphylococcus aureus [4] = test: Antimicrobial activity against methicillin-resistant Staphylococcus aureus 525 measured on day 45 by macrodilution method; format: functional
Staphylococcus aureus [5] = test: Antimicrobial activity against methicillin-susceptible Staphylococcus aureus 543 measured on day 45 by macrodilution method; format: functional
Staphylococcus aureus [6] = test: Antimicrobial activity against methicillin-susceptible Staphylococcus aureus 540 measured on day 25 by macrodilution method; format: functional; conditions: Staphylococcus aureus, 540, 600 h
Staphylococcus aureus [7] = test: Antimicrobial activity against methicillin-resistant Staphylococcus aureus 547 measured on day 35 by macrodilution method; format: functional
Staphylococcus aureus [8] = test: Antimicrobial activity against methicillin-susceptible Staphylococcus aureus 540 measured on day 40 by macrodilution method; format: functional
Staphylococcus aureus [9] = test: Antimicrobial activity against vancomycin-resistant Staphylococcus aureus 509 by macrodilution method; format: functional
Staphylococcus aureus [10] = test: Antimicrobial activity against methicillin-susceptible Staphylococcus aureus 543 measured on day 50 by macrodilution method; format: functional
Staphylococcus aureus [11] = test: Antimicrobial activity against heterogeneous vancomycin-intermediate Staphylococcus aureus 168 measured on day 40 by macrodilution method; format: functional
Staphylococcus aureus [12] = test: Antimicrobial activity against methicillin-resistant Staphylococcus aureus 525 measured on day 40 by macrodilution method; format: functional
Staphylococcus aureus [13] = test: Antimicrobial activity against vancomycin-resistant Staphylococcus aureus 510 by macrodilution method; format: functional
Staphylococcus aureus [14] = test: Antimicrobial activity against vancomycin-intermediate Staphylococcus aureus 1287 measured on day 50 by macrodilution method; format: functional
Staphylococcus aureus [15] = test: Antimicrobial activity against vancomycin-intermediate Staphylococcus aureus 555 measured on day 5 by macrodilution method; format: functional; conditions: Staphylococcus aureus, 555, 120 h
Staphylococcus aureus [16] = test: Antimicrobial activity against vancomycin-intermediate Staphylococcus aureus 555 by macrodilution method; format: functional
Staphylococcus aureus [17] = test: Antimicrobial activity against methicillin-resistant Staphylococcus aureus 525 measured on day 50 by macrodilution method; format: functional
Staphylococcus aureus [18] = test: Antimicrobial activity against vancomycin-intermediate Staphylococcus aureus 555 measured on day 50 by macrodilution method; format: functional
Staphylococcus aureus [19] = test: Antimicrobial activity against vancomycin-resistant Staphylococcus aureus 510 after 50 passages by macrodilution method; format: functional
Staphylococcus aureus [20] = test: Antimicrobial activity against methicillin-susceptible Staphylococcus aureus 543 measured on day 15 by macrodilution method; format: functional; conditions: Staphylococcus aureus, 543, 360 h
Staphylococcus aureus [21] = test: Antimicrobial activity against methicillin-susceptible Staphylococcus aureus 543 measured on day 20 by macrodilution method; format: functional; conditions: Staphylococcus aureus, 543, 480 h
Staphylococcus aureus [22] = test: Antimicrobial activity against methicillin-susceptible Staphylococcus aureus 540 measured on day 50 by macrodilution method; format: functional
Staphylococcus aureus [23] = test: Antimicrobial activity against vancomycin-resistant Staphylococcus aureus 509 measured after 10 antibiotic-free subculturing by macrodilution method; format: functional
Staphylococcus aureus [24] = test: Antimicrobial activity against methicillin-susceptible Staphylococcus aureus 543 measured on day 35 by macrodilution method; format: functional
Staphylococcus aureus [25] = test: Antimicrobial activity against vancomycin-intermediate Staphylococcus aureus 555 measured on day 20 by macrodilution method; format: functional; conditions: Staphylococcus aureus, 555, 480 h
Staphylococcus aureus [26] = test: Antimicrobial activity against heterogeneous vancomycin-intermediate Staphylococcus aureus 168 measured on day 25 by macrodilution method; format: functional; conditions: Staphylococcus aureus, 168, 600 h
Staphylococcus aureus [27] = test: Antimicrobial activity against methicillin-resistant Staphylococcus aureus 547 measured on day 50 by macrodilution method; format: functional
Staphylococcus aureus [28] = test: Antimicrobial activity against methicillin-resistant Staphylococcus aureus 525 measured on day 35 by macrodilution method; format: functional
Staphylococcus aureus [29] = test: Antimicrobial activity against methicillin-susceptible Staphylococcus aureus 543 after 50 passages by macrodilution method; format: functional
Staphylococcus aureus [30] = test: Antimicrobial activity against methicillin-resistant Staphylococcus aureus 547 measured on day 25 by macrodilution method; format: functional; conditions: Staphylococcus aureus, 547, 600 h
Staphylococcus aureus [31] = test: Antimicrobial activity against methicillin-susceptible Staphylococcus aureus 540 measured on day 20 by macrodilution method; format: functional; conditions: Staphylococcus aureus, 540, 480 h
Staphylococcus aureus [32] = test: Antimicrobial activity against vancomycin-intermediate Staphylococcus aureus 555 measured on day 45 by macrodilution method; format: functional
Staphylococcus aureus [33] = test: Antimicrobial activity against methicillin-susceptible Staphylococcus aureus 540 measured on day 45 by macrodilution method; format: functional
Staphylococcus aureus [34] = test: Antimicrobial activity against vancomycin-intermediate Staphylococcus aureus 1287 measured on day 15 by macrodilution method; format: functional; conditions: Staphylococcus aureus, 1287, 360 h
Staphylococcus aureus [35] = test: Antimicrobial activity against heterogeneous vancomycin-intermediate Staphylococcus aureus 873 measured on day 30 by macrodilution method; format: functional
Staphylococcus aureus [36] = test: Antimicrobial activity against vancomycin-intermediate Staphylococcus aureus 555 measured on day 25 by macrodilution method; format: functional; conditions: Staphylococcus aureus, 555, 600 h
Staphylococcus aureus [37] = test: Antimicrobial activity against heterogeneous vancomycin-intermediate Staphylococcus aureus 168 measured on day 20 by macrodilution method; format: functional; conditions: Staphylococcus aureus, 168, 480 h
Staphylococcus aureus [38] = test: Antimicrobial activity against methicillin-resistant Staphylococcus aureus 525 measured on day 20 by macrodilution method; format: functional; conditions: Staphylococcus aureus, 525, 480 h
Staphylococcus aureus [39] = test: Antimicrobial activity against vancomycin-intermediate Staphylococcus aureus 1287 after 50 passages by macrodilution method; format: functional
Staphylococcus aureus [40] = test: Antimicrobial activity against methicillin-susceptible Staphylococcus aureus 543 measured on day 25 by macrodilution method; format: functional; conditions: Staphylococcus aureus, 543, 600 h
Staphylococcus aureus [41] = test: Antimicrobial activity against vancomycin-intermediate Staphylococcus aureus 555 measured on day 35 by macrodilution method; format: functional
Staphylococcus aureus [42] = test: Antimicrobial activity against heterogeneous vancomycin-intermediate Staphylococcus aureus 168 measured on day 45 by macrodilution method; format: functional
Staphylococcus aureus [43] = test: Antimicrobial activity against methicillin-susceptible Staphylococcus aureus 540 after 50 passages by macrodilution method
Staphylococcus aureus [44] = test: Antimicrobial activity against heterogeneous vancomycin-intermediate Staphylococcus aureus 168 after 50 passages by macrodilution method; format: functional
Staphylococcus aureus [45] = test: Antimicrobial activity against vancomycin-intermediate Staphylococcus aureus 1287 measured on day 45 by macrodilution method; format: functional
Staphylococcus aureus [46] = test: Antimicrobial activity against vancomycin-intermediate Staphylococcus aureus 555 measured on day 40 by macrodilution method; format: functional
Staphylococcus aureus [47] = test: Antimicrobial activity against methicillin-resistant Staphylococcus aureus 525 measured on day 30 by macrodilution method; format: functional
Staphylococcus aureus [48] = test: Antimicrobial activity against vancomycin-intermediate Staphylococcus aureus 555 measured on day 10 by macrodilution method; format: functional; conditions: Staphylococcus aureus, 555, 240 h
Staphylococcus aureus [49] = test: Antimicrobial activity against heterogeneous vancomycin-intermediate Staphylococcus aureus 168 measured on day 50 by macrodilution method; format: functional
Staphylococcus aureus [50] = test: Antimicrobial activity against methicillin-resistant Staphylococcus aureus 525 after 50 passages by macrodilution method; format: functional
Staphylococcus aureus [51] = test: Antimicrobial activity against vancomycin-intermediate Staphylococcus aureus 555 measured on day 15 by macrodilution method; format: functional; conditions: Staphylococcus aureus, 555, 360 h
Staphylococcus aureus [52] = test: microbe, parasite or virus in culture; conditions: 555
Description: Antimicrobial activity against vancomycin-intermediate Staphylococcus aureus 555 after 50 passages by macrodilution method

Staphylococcus aureus [53] = test: Antimicrobial activity against heterogeneous vancomycin-intermediate Staphylococcus aureus 168 measured on day 35 by macrodilution method; format: functional
Staphylococcus aureus [54] = test: Antimicrobial activity against methicillin-susceptible Staphylococcus aureus 540 measured on day 30 by macrodilution method; format: functional
Staphylococcus aureus [55] = test: Antimicrobial activity against methicillin-susceptible Staphylococcus aureus 540 measured on day 15 by macrodilution method; format: functional; conditions: Staphylococcus aureus, 540, 360 h
Staphylococcus aureus [56] = test: Antimicrobial activity against methicillin-susceptible Staphylococcus aureus 543 measured on day 30 by macrodilution method; format: functional
Staphylococcus aureus [57] = test: Antimicrobial activity against methicillin-resistant Staphylococcus aureus 547 measured on day 30 by macrodilution method; format: functional

Q: Which results are given for `CN[C@H](CC(C)C)C(=O)N[C@H]1C(=O)N[C@@H](CC(N)=O)C(=O)N[C@H]2C(=O)N[C@H]3C(=O)N[C@H](C(=O)N[C@H](C(=O)O)c4cc(O)cc(O)c4-c4cc3ccc4O)[C@H](O)c3ccc(c(Cl)c3)Oc3cc2cc(c3O[C@@H]2O[C@H](CO)[C@@H](O)[C@H](O)[C@H]2O[C@H]2C[C@](C)(N)[C@H](O)[C@H](C)O2)Oc2ccc(cc2Cl)[C@H]1O` [VANCOMYCIN]?
A: MIC (Staphylococcus aureus [1]): 8 µg/mL (≈ 5.52 µM); MIC (Staphylococcus aureus [2]): 8 µg/mL (≈ 5.52 µM); MIC (Staphylococcus aureus [3]): 16 µg/mL (≈ 11 µM); MIC (Staphylococcus aureus [4]): 8 µg/mL (≈ 5.52 µM); MIC (Staphylococcus aureus [5]): 8 µg/mL (≈ 5.52 µM); MIC (Staphylococcus aureus [6]): 8 µg/mL (≈ 5.52 µM); MIC (Staphylococcus aureus [7]): 8 µg/mL (≈ 5.52 µM); MIC (Staphylococcus aureus [8]): 32 µg/mL (≈ 22.1 µM); MIC (Staphylococcus aureus [9]): > 64 µg/mL; MIC (Staphylococcus aureus [10]): 8 µg/mL (≈ 5.52 µM); MIC (Staphylococcus aureus [11]): 8 µg/mL (≈ 5.52 µM); MIC (Staphylococcus aureus [12]): 16 µg/mL (≈ 11 µM); MIC (Staphylococcus aureus [13]): 64 µg/mL (≈ 44.2 µM); MIC (Staphylococcus aureus [14]): 8 µg/mL (≈ 5.52 µM); MIC (Staphylococcus aureus [15]): 8 µg/mL (≈ 5.52 µM); MIC (Staphylococcus aureus [16]): 8 µg/mL (≈ 5.52 µM); MIC (Staphylococcus aureus [17]): 8 µg/mL (≈ 5.52 µM); MIC (Staphylococcus aureus [18]): 8 µg/mL (≈ 5.52 µM); MIC (Staphylococcus aureus [19]): ≥ 64 µg/mL; MIC (Staphylococcus aureus [20]): 8 µg/mL (≈ 5.52 µM); MIC (Staphylococcus aureus [21]): 8 µg/mL (≈ 5.52 µM); MIC (Staphylococcus aureus [22]): 8 µg/mL (≈ 5.52 µM); MIC (Staphylococcus aureus [23]): > 64 µg/mL; MIC (Staphylococcus aureus [24]): 8 µg/mL (≈ 5.52 µM); MIC (Staphylococcus aureus [25]): 8 µg/mL (≈ 5.52 µM); MIC (Staphylococcus aureus [26]): 8 µg/mL (≈ 5.52 µM); MIC (Staphylococcus aureus [27]): 8 µg/mL (≈ 5.52 µM); MIC (Staphylococcus aureus [28]): 8 µg/mL (≈ 5.52 µM); MIC (Staphylococcus aureus [29]): 8 µg/mL (≈ 5.52 µM); MIC (Staphylococcus aureus [30]): 8 µg/mL (≈ 5.52 µM); MIC (Staphylococcus aureus [31]): 8 µg/mL (≈ 5.52 µM); MIC (Staphylococcus aureus [32]): 32 µg/mL (≈ 22.1 µM); MIC (Staphylococcus aureus [33]): 16 µg/mL (≈ 11 µM); MIC (Staphylococcus aureus [34]): 8 µg/mL (≈ 5.52 µM); MIC (Staphylococcus aureus [35]): 8 µg/mL (≈ 5.52 µM); MIC (Staphylococcus aureus [36]): 8 µg/mL (≈ 5.52 µM); MIC (Staphylococcus aureus [37]): 8 µg/mL (≈ 5.52 µM); MIC (Staphylococcus aureus [38]): 8 µg/mL (≈ 5.52 µM); MIC (Staphylococcus aureus [39]): 8 µg/mL (≈ 5.52 µM); MIC (Staphylococcus aureus [40]): 8 µg/mL (≈ 5.52 µM); MIC (Staphylococcus aureus [41]): 32 µg/mL (≈ 22.1 µM); MIC (Staphylococcus aureus [42]): 8 µg/mL (≈ 5.52 µM); MIC (Staphylococcus aureus [43]): 8 µg/mL (≈ 5.52 µM); MIC (Staphylococcus aureus [44]): 8 µg/mL (≈ 5.52 µM); MIC (Staphylococcus aureus [45]): 8 µg/mL (≈ 5.52 µM); MIC (Staphylococcus aureus [46]): 32 µg/mL (≈ 22.1 µM); MIC (Staphylococcus aureus [47]): 0.06 µg/mL (≈ 0.0414 µM); MIC (Staphylococcus aureus [48]): 8 µg/mL (≈ 5.52 µM); MIC (Staphylococcus aureus [49]): 8 µg/mL (≈ 5.52 µM); MIC (Staphylococcus aureus [50]): 8 µg/mL (≈ 5.52 µM); MIC (Staphylococcus aureus [51]): 8 µg/mL (≈ 5.52 µM); MIC (Staphylococcus aureus [52]): 8 µg/mL (≈ 5.52 µM); MIC (Staphylococcus aureus [53]): 8 µg/mL (≈ 5.52 µM); MIC (Staphylococcus aureus [54]): 8 µg/mL (≈ 5.52 µM); MIC (Staphylococcus aureus [55]): 8 µg/mL (≈ 5.52 µM); MIC (Staphylococcus aureus [56]): 8 µg/mL (≈ 5.52 µM); MIC (Staphylococcus aureus [57]): 16 µg/mL (≈ 11 µM)
